Values quoted from earlier work in patent publication US20250161335A1, “Drug and Method for Nucleoside (Acid) Drug Therapy of Limiting Chronic Hepatitis B” (Shanghai Hep Pharmaceutical Co., Ltd., priority 2022, published 2025).

Tested on: HBV
Conditions: patients treated with nucleoside (acid) medicine

SMILES: C[C@H](Cn1cnc2c(N)ncnc21)OCP(=O)(O)O [tenofovir]
- inhibition rate on viral DNA: about 70%
